The text below walks through data of ChEMBL document CHEMBL4265965, “Dichloroacetophenones targeting at pyruvate dehydrogenase kinase 1 with improved selectivity and antiproliferative activity: Synthesis and structure-activity relationships” (Bioorg Med Chem Lett, 2018).

The source made the active and inactive calls. No cut-off for these calls is given here.

Assay [1] concerns the target T1, [Pyruvate dehydrogenase (acetyl-transferring)] kinase isozyme 1, mitochondrial (Homo sapiens, UniProt Q15118). Kind of assay: Inhibition of recombinant human N-terminal His6/Sumo-tagged PDK1 (29 to 436 residues) expressed in Escherichia coli BL21 at 1 uM by kinase-glo luminescence assay relative to control. For orientation: Kinase-Glo measures the ATP left after a reaction by luminescence.

In assay [2] the test system is NCI-H1975. Kind of assay: Antiproliferative activity against human NCI-H1975 cells assessed as inhibition of cell proliferation after 72 hrs by MTT assay. The settings on record: NCI-H1975, 72 h. The class given is functional, cell-based.
In assay [3] the test system is A549. Nature of the assay: Antiproliferative activity against human A549 cells assessed as inhibition of cell proliferation at 2 uM after 72 hrs by MTT assay relative to control. The class given is functional. The settings on record: A549, 72 h. (In general: Tetrazolium assays rely on reduction of a dye to a coloured formazan, in cell work by metabolically active cells.)

In assay [4] the test system is NCI-H1975. Nature of the assay: Antiproliferative activity against human NCI-H1975 cells assessed as inhibition of cell proliferation at 12 uM after 72 hrs by MTT assay relative to control. The class given is functional. The settings on record: NCI-H1975, 72 h.
Assay [5] relates to NCI-H1975. Nature of the assay: Antiproliferative activity against human NCI-H1975 cells assessed as inhibition of cell proliferation at 2 uM after 72 hrs by MTT assay relative to control. The class given is functional. The settings on record: NCI-H1975, 72 h.
Assay [6] concerns A549. Kind of assay: Antiproliferative activity against human A549 cells assessed as inhibition of cell proliferation at 6 uM after 72 hrs by MTT assay relative to control. The class given is functional. As to conditions: A549, 72 h.
Assay [7] has as its system NCI-H1650. Nature of the assay: Antiproliferative activity against human NCI-H1650 cells assessed as inhibition of cell proliferation at 6 uM after 72 hrs by MTT assay relative to control. Type of assay: functional. The settings on record: NCI-H1650, 72 h.
Assay [8] deals with NCI-H1975. Kind of assay: Antiproliferative activity against human NCI-H1975 cells assessed as inhibition of cell proliferation at 6 uM after 72 hrs by MTT assay relative to control. Type of assay: functional. The settings on record: NCI-H1975, 72 h.
For assay [9], the system named is NCI-H1650. Nature of the assay: Antiproliferative activity against human NCI-H1650 cells assessed as inhibition of cell proliferation at 2 uM after 72 hrs by MTT assay relative to control. As to conditions: NCI-H1650, 72 h. The class given is functional.
The test system of assay [10] is NCI-H1650. Nature of the assay: Antiproliferative activity against human NCI-H1650 cells assessed as inhibition of cell proliferation at 12 uM after 72 hrs by MTT assay relative to control. Type of assay: functional. As to conditions: NCI-H1650, 72 h.
For assay [11], the system named is A549. Kind of assay: Antiproliferative activity against human A549 cells assessed as inhibition of cell proliferation at 12 uM after 72 hrs by MTT assay relative to control. Type of assay: functional. As to conditions: A549, 72 h.
Assay [12] concerns the target T1, [Pyruvate dehydrogenase (acetyl-transferring)] kinase isozyme 1, mitochondrial. Kind of assay: Inhibition of PDK1 in human NCI-H1975 cells assessed as reduction in pyruvate dehydrogenase phosphorylation at 10 uM after 24 hrs by Western blot analysis. The class given is cell-based.

In general, inhibition refers to the share of the control response that was lost under treatment. Usually IC50 stands for the concentration at which inhibition is half-maximal. Take `O=C(c1cccc(CCl)c1)C(Cl)Cl`: in [1], the inhibition is 15.1%. In addition, the half-maximal inhibitory concentration (IC50) in the assay with NCI-H1975 [2] turned out to be 200 nM. The inhibition at 2 µM with A549 [3] stood at 73.3%; with NCI-H1975 [5], 99%; with NCI-H1650 [9], 97.6%. For the same molecule, the inhibition at 12 µM in the assay on NCI-H1975 [4] was 99.5%; in the assay with NCI-H1650 [10], 100%; in the assay on A549 [11], 100%. Further, the inhibition at 6 µM was found to be 99.5% with A549 [6], 100% with NCI-H1650 [7] and 99.3% with NCI-H1975 [8].
For the molecule `CCCOc1ccc(C(=O)C(Cl)Cl)cc1`, the inhibition in [1] is 19.7 to 67.9%. In the assay on NCI-H1975 [2], the half-maximal inhibitory concentration (IC50) was 2000 nM. The results for the inhibition at 2 µM in the assay with A549 [3], in the assay with NCI-H1975 [5] and with NCI-H1650 [9] were 8.4%, 44.3% and 27.4%, respectively. Further, the inhibition at 12 µM is 97.7% in the assay with NCI-H1975 [4], 95.3% in the assay with NCI-H1650 [10] and 79.7% with A549 [11]. Further, the inhibition entry in assay [12] is “Active”. Moreover, the inhibition at 6 µM with A549 [6] was found to be 58.9%; in the assay with NCI-H1650 [7], 66%; in the assay on NCI-H1975 [8], 93%.
Consider `O=C(c1ccc(-c2ccccc2)cc1)C(Cl)Cl`, for which, in assay [1], the inhibition was in the range of 19.7 to 67.9%. For the same molecule, in the assay with NCI-H1975 [2], the IC50 is 2000 nM. The inhibition at 2 µM was 22.5% with A549 [3], 56.3% in the assay with NCI-H1975 [5] and 42.2% with NCI-H1650 [9]. For the same molecule, the inhibition at 12 µM in the assay with NCI-H1975 [4] worked out at 99.4%; in the assay on NCI-H1650 [10], 96.4%; in the assay with A549 [11], 91.2%. Further, the inhibition entry in assay [12] was “Active”. The inhibition at 6 µM in the assay with A549 [6] is 75.9%; in the assay on NCI-H1650 [7], 79.2%; with NCI-H1975 [8], 90.3%.
`CC1CCOc2ccc(C(=O)C(Cl)Cl)cc21` (centres undefined): the inhibition in assay [1] lay in the range of 19.7 to 67.9%. Further, the results for the inhibition at 2 µM with A549 [3], in the assay on NCI-H1975 [5] and in the assay with NCI-H1650 [9] were 24.1%, 69.4% and 27%, respectively. Besides, the inhibition at 12 µM with NCI-H1975 [4] worked out at 99.6%; in the assay on NCI-H1650 [10], 94.8%; with A549 [11], 93.4%. Moreover, the inhibition result in [12] was “Active”. For the same molecule, the inhibition at 6 µM turned out to be 77.7% in the assay with A549 [6], 67.3% in the assay on NCI-H1650 [7] and 98% in the assay with NCI-H1975 [8].
On to `CCCCOc1ccc(C(=O)C(Cl)Cl)cc1`, for which the inhibition in [1] fell in the range of 19.7 to 67.9%. The results for the inhibition at 2 µM in the assay on A549 [3], in the assay on NCI-H1975 [5] and with NCI-H1650 [9] were 20.9%, 46.5% and 30.7%, respectively. For the same molecule, the values for the inhibition at 12 µM in the assay on NCI-H1975 [4], with NCI-H1650 [10] and in the assay with A549 [11] were 97.4%, 97.6% and 67%, respectively. The inhibition entry in [12] is “Active”. In addition, the results for the inhibition at 6 µM with A549 [6], with NCI-H1650 [7] and in the assay with NCI-H1975 [8] were 46.6%, 70.7% and 92%, respectively.
For the molecule `CC(C)c1ccc(C(=O)C(Cl)Cl)cc1`, the inhibition in assay [1] came out at 59.9%. Further, the inhibition at 2 µM was 24.4% in the assay on A549 [3], 60.1% in the assay with NCI-H1975 [5] and 26.6% in the assay with NCI-H1650 [9]. Moreover, the inhibition at 12 µM in the assay with NCI-H1975 [4] is 96.7%; in the assay on NCI-H1650 [10] it was 91.2%; in the assay with A549 [11] it was 88.1%. The inhibition result in [12] is “Active”. In addition, the inhibition at 6 µM with A549 [6] turned out to be 65.8%; in the assay with NCI-H1650 [7], 65.3%; in the assay with NCI-H1975 [8], 96.1%.
Take `CCCCCOc1ccc(C(=O)C(Cl)Cl)cc1`: the inhibition in assay [1] lay within 19.7 to 67.9%. Further, the inhibition at 2 µM turned out to be 20.2% with A549 [3], 57.5% with NCI-H1975 [5] and 32.8% with NCI-H1650 [9]. Besides, the inhibition at 12 µM in the assay on NCI-H1975 [4] turned out to be 98.5%; with NCI-H1650 [10], 98.2%; in the assay on A549 [11] it was 85%. Moreover, the inhibition result in [12] was “Active”. The inhibition at 6 µM was 60.4% in the assay with A549 [6], 81.5% in the assay on NCI-H1650 [7] and 96.6% in the assay with NCI-H1975 [8].
